Test results reported in US20080286809A1, “Methods” (MEDICAL RESEARCH COUNCIL, priority 2005, published 2008).

Target: T1, WNK1 (Homo sapiens, UniProt Q9H4A3)
T1 construct: made in house
Experiment: ELISA assay for inhibitors of WNK activity: anti-phospho-SPAK-S373 detection of OSR1(D164A) phosphorylation
Type: biochemical
Conditions: non-radioactive ELISA; immobilised OSR1(D164A) substrate; anti-phospho-SPAK-S373 antibody; absorbance readout; read-out: IC50, Hypericin Inhibition of WNK1
Protocol: An example of a non-radioactive assay, suitable for screening of small drug-like compound libraries, has been developed using anti-phospho-SPAK antibodies to detect phosphorylation of WNK substrates SPAK or OSR1 in an ELISA format.
Anti-phospho-SPAK-S373 and anti-phospho-SPAK-T233 were anti-phospho-peptide antibodies raised in sheep for use in western blotting. They were evaluated for use in the ELISA format. Anti-phospho-SPAK-S373 was active in the ELISA with native OSR1 protein. SPAK and OSR1 are interchangeable in the assay as the amino acid sequences are very similar overall and have the same sequence flanking the phosphorylation sites. […] Wild type OSR1 had significant autophosphorylation/ATP hydrolytic activity, and could lead to depletion of substrates during the time course of the reaction.
The assay was performed in maxisorp (Nunc) 384-clear plates. OSR1(D164A), 30 ng/well, was coated overnight at 4° C. in Tris buffered saline (TBS) pH 7.4. […] Plates were read on an absorbance reader at […]. […]
The assay was tolerant to a wide range of ATP concentrations (1-1000 μM) and 1% DMSO (compound storage solvent). Compound interference by autofluorescence, quenching or absorbance is minimised as it is heterogeneous involving several wash steps. […]

T1 sequence (Q9H4A3 whole entry): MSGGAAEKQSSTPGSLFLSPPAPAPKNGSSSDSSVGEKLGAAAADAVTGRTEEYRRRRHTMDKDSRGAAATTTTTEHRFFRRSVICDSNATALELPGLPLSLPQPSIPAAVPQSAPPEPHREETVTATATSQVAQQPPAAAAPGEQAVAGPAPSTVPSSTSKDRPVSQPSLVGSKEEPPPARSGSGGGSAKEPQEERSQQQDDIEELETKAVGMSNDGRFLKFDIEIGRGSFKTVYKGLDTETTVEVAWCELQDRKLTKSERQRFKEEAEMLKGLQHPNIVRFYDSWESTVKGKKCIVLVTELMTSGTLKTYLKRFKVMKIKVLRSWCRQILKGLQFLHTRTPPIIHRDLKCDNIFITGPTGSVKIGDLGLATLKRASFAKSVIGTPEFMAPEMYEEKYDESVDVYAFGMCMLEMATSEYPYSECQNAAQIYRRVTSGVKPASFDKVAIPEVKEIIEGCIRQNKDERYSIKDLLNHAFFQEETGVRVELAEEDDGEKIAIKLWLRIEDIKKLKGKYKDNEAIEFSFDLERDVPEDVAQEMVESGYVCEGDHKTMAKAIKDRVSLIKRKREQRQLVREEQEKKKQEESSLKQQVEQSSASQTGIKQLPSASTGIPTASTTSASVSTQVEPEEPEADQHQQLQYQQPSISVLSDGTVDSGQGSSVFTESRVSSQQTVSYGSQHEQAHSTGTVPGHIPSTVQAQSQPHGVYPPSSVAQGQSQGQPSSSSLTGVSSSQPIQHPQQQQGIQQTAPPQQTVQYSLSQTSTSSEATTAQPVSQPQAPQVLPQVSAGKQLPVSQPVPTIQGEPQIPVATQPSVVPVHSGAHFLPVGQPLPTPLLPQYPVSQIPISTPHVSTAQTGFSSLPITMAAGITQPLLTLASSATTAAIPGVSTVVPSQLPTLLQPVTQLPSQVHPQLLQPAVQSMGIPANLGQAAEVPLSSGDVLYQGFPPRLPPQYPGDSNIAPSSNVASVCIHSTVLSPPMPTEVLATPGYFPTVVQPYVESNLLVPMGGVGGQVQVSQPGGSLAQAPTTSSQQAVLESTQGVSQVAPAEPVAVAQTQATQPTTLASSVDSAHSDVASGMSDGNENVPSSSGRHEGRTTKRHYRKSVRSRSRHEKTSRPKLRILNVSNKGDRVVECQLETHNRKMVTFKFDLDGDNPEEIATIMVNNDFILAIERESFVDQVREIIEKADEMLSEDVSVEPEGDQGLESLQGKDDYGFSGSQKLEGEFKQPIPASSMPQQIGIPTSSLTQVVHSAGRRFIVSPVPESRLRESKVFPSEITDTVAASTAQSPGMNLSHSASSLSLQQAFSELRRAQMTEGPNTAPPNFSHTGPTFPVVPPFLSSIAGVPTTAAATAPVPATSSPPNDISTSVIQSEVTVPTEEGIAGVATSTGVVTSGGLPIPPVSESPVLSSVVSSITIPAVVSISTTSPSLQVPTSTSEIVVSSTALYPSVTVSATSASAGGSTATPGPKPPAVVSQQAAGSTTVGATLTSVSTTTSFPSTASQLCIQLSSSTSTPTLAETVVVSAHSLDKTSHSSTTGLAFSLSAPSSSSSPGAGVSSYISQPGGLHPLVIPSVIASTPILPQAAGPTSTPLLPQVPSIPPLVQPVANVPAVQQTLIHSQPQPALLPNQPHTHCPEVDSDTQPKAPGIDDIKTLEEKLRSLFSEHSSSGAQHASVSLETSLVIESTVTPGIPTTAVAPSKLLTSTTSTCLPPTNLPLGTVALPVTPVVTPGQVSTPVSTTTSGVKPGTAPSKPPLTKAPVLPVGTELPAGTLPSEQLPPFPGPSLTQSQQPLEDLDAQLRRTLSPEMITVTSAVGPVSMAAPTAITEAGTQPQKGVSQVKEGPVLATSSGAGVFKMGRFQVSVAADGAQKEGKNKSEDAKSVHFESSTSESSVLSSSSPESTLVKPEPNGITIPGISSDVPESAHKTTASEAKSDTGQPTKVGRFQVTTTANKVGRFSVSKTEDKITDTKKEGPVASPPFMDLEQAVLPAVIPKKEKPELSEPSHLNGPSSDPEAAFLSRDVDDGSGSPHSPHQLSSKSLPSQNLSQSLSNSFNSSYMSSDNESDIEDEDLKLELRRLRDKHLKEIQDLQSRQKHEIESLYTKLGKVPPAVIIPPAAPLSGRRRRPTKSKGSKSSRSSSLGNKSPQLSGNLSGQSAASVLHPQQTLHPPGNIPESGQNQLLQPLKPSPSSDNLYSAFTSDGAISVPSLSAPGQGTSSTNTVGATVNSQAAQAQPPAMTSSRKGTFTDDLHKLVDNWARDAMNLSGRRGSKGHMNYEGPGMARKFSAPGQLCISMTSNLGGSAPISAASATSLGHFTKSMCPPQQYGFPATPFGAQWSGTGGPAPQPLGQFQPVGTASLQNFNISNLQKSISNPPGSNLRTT

## Cc1cc(O)c2c(=O)c3c(O)cc(O)c4c5c(O)cc(O)c6c(=O)c7c(O)cc(C)c8c1c2c(c34)c(c78)c65 [Hypericin]
  IC50: 1500 nM
